What was measured:
ALDH1A1 = target: T1, ALDH1A1 (Homo sapiens, UniProt P00352); experiment: Inhibition of ALDH isoenzymes (NAD(P)H formation at 340 nm, purified recombinant enzyme); assay type: biochemical; conditions: for remaining activity at 20 µM: compound at 20 μM, read-out: ALDH1A1 % Control at 20 μM; for IC50: 100-200 nM enzyme, 200 μM NAD+, 100 μM propionaldehyde, pH 7.5, 25° C.; for ALDH1A1: compound is a substrate: result in words in place of IC50
T1 sequence (P00352 1-501): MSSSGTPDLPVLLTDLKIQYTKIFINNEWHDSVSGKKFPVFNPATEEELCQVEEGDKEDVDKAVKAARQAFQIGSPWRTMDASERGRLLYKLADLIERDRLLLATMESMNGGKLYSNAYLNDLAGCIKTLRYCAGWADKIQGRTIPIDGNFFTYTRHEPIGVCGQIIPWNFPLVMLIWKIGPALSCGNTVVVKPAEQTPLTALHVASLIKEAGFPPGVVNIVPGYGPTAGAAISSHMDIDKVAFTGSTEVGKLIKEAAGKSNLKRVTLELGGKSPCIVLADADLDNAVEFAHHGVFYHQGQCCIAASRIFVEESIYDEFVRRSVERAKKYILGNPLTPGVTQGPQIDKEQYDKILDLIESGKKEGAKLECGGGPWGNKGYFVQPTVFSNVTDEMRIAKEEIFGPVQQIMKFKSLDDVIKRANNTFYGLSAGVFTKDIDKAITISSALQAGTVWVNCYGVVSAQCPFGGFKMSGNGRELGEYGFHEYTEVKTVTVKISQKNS

ALDH1A2 = target: T2, ALDH1A2 (Homo sapiens, UniProt O94788); experiment: as above; assay type: biochemical; conditions: for remaining activity at 20 µM: compound at 20 μM, read-out: ALDH1A2 % Control at 20 μM; for IC50: 100-200 nM enzyme, 200 μM NAD+, 100 μM propionaldehyde, pH 7.5, 25° C.; for ALDH1A2: compound is a substrate: result in words
T2 sequence (O94788 1-518): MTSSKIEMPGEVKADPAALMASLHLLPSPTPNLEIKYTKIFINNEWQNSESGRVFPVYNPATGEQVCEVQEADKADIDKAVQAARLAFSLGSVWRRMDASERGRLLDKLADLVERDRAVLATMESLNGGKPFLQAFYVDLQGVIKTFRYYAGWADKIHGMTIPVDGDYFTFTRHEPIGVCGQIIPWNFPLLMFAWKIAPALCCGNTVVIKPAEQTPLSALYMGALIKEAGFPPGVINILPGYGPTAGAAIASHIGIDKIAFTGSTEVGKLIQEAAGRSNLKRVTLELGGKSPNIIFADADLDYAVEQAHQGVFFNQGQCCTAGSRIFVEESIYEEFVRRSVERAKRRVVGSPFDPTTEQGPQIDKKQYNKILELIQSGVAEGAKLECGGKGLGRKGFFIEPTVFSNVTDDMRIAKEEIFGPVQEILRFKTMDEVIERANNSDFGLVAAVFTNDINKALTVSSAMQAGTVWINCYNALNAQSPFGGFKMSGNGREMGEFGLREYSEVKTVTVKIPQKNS

ALDH1A3 = target: T3, ALDH1A3 (Homo sapiens, UniProt P47895); experiment: as above; assay type: biochemical; conditions: for remaining activity at 20 µM: compound at 20 μM, read-out: ALDH1A3 % Control at 20 μM; for IC50: 100-200 nM enzyme, 200 μM NAD+, 100 μM propionaldehyde, pH 7.5, 25° C.
T3 sequence (P47895 1-512): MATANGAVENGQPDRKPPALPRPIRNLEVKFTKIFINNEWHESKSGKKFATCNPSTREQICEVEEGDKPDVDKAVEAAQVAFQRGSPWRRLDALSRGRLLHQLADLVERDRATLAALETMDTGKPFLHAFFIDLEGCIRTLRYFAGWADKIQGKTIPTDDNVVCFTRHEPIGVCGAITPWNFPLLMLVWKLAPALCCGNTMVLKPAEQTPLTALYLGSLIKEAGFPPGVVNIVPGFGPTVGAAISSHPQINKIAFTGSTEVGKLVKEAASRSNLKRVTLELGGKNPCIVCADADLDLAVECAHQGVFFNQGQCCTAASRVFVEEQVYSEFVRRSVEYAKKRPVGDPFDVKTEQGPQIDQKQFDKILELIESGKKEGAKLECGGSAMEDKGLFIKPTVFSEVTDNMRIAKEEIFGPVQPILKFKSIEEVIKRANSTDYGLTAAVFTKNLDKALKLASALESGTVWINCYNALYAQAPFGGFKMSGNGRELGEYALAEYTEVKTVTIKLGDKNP

ALDH2 = target: T4, ALDH2 (Homo sapiens, UniProt P05091); experiment: as above; assay type: biochemical; set-up: key to ALDH2 inhibition at 20 μM (N.I.): N.I.: No inhibition at 20 μM; conditions: compound at 20 μM; for remaining activity at 20 µM: read-out: ALDH2 % Control at 20 μM;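 as to all read-outs here: run at 25 °C, started by adding substrate after 2 min preincubation, with 100-200 nM ALDH2, 200 µM NAD+, 100 µM propionaldehyde, 1% DMSO in BES buffer pH 7.5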
T4 sequence (P05091 18-517): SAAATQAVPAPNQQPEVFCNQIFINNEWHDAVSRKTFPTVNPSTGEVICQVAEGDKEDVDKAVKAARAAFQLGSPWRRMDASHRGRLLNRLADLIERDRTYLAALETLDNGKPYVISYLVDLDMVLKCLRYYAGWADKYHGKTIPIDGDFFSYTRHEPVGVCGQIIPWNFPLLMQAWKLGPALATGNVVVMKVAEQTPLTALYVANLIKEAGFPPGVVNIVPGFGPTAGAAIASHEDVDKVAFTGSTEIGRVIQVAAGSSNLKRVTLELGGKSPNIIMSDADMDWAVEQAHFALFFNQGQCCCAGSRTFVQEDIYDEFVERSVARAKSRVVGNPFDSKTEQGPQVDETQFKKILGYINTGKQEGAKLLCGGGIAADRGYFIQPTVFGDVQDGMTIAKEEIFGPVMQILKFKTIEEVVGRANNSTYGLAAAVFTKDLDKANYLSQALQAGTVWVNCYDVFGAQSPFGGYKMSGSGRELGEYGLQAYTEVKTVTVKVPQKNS

OVSAHO = OVSAHO Cell Viability; assay type: cell-based; conditions: for OVSAHO Cell Viability (30 μM) % CD133 + % ctrl / OVSAHO Cell Viability (50 μM) % CD133 + % ctrl: CD133+ cells; for OVSAHO Cell Viability (30 μM) Total Cell % ctrl / OVSAHO Cell Viability (50 μM) Total Cell % ctrl: total cells

remaining activity at 20 µM (ALDH1A1) | remaining activity at 20 µM (ALDH1A2) | remaining activity at 20 µM (ALDH1A3) | remaining activity at 20 µM (ALDH2) | IC50 (ALDH1A1) | IC50 (ALDH1A2) | IC50 (ALDH1A3) | SMILES | further results
18% | 19% | 9% | 95% | – | – | – | C[C@H](Sc1nc2c(cnn2C)c(=O)n1-c1ccccc1)c1ccccc1 [Example 69, (S)-1-methyl-5-phenyl-6-((1-phenylethyl)thio)-1H-pyrazolo[3,4-d]pyrimidin-4(5H)-one] | OVSAHO Cell Viability (30 μM) % CD133 + % ctrl (OVSAHO): 80% ctrl; OVSAHO Cell Viability (30 μM) Total Cell % ctrl (OVSAHO): 25% ctrl
– | – | – | 102% | 2280 nM | – | – | O=c1c2cn(CC3COC3)nc2nc(OCc2cccc(F)c2)n1-c1ccccc1 [Example 63] | remaining activity at 5 µM (ALDH1A2; compound at 5 μM (footnote *), read-out: ALDH1A2 % Control at 5 μM): 43%; remaining activity at 5 µM (ALDH1A3; compound at 5 μM (footnote *), read-out: ALDH1A3 % Control at 5 μM): 61%; OVSAHO Cell Viability (30 μM) % CD133 + % ctrl (OVSAHO): 81% ctrl; OVSAHO Cell Viability (30 μM) Total Cell % ctrl (OVSAHO): 18% ctrl
3% | 0% | 0% | 96% | – | – | – | CC(Sc1nc2nn(C3COC3)cc2c(=O)n1-c1ccccc1)c1ccccc1 (stereo not drawn) [Example 74, 2-(oxetan-3-yl)-5-phenyl-6-((1-phenylethyl)thio)-2H-pyrazolo[3,4-d]pyrimidin-4(5H)-one] | –
– | – | – | 88% | 281 nM | 265 nM | 207 nM | COc1cccc(CSc2nc3c(cnn3C)c(=O)n2-c2ccccc2)c1 [Example 54, 6-((3-methoxybenzyl)thio)-1-methyl-5-phenyl-1H-pyrazolo[3,4-d]pyrimidin-4(5H)-one] | –
26% | 34% | 24% | 96% | – | – | – | Cn1ncc2c(=O)n(-c3ccccc3)c(SC3CCCCC3)nc21 [Example 72, 6-(cyclohexylthio)-1-methyl-5-phenyl-1H-pyrazolo[3,4-d]pyrimidin-4(5H)-one] | –
24% | 30% | 32% | 95% | – | – | – | Cn1ncc2c(=O)n(-c3ccccc3)c(SCc3cccc(C#N)c3)nc21 [Example 53, 3-(((1-methyl-4-oxo-5-phenyl-4,5-dihydro-1H-pyrazolo[3,4-d]pyrimidin-6-yl)thio)methyl)benzonitrile] | –
– | – | – | 89% | – | – | 236 nM | Cn1ncc2c(=O)n(-c3ccccc3)c(SCc3ccc(C=O)cc3)nc21 [Example 59, 4-(((1-methyl-4-oxo-5-phenyl-4,5-dihydro-1H-pyrazolo[3,4-d]pyrimidin-6-yl)thio)methyl)benzaldehyde] | ALDH1A1: compound is a substrate (ALDH1A1): substrate; ALDH1A2: compound is a substrate (ALDH1A2): substrate
– | – | – | 102% | – | 3400 nM | 764 nM | Cn1ncc2c(=O)n(-c3ccccc3)c(SCc3cccc(C=O)c3)nc21 [Example 58, 3-(((1-methyl-4-oxo-5-phenyl-4,5-dihydro-1H-pyrazolo[3,4-d]pyrimidin-6-yl)thio)methyl)benzaldehyde] | ALDH1A1: compound is a substrate (ALDH1A1): substrate; ALDH1A2: compound is a substrate (ALDH1A2): (slow

Continued, compound first:

SMILES | remaining activity at 20 µM (ALDH1A1) | remaining activity at 20 µM (ALDH1A2) | remaining activity at 20 µM (ALDH1A3) | remaining activity at 20 µM (ALDH2) | IC50 (ALDH1A1) | IC50 (ALDH1A2) | IC50 (ALDH1A3) | further results
Cc1ccccc1-n1c(OCc2cc3ccccc3s2)nc2c(cnn2C)c1=O [Example 40, 6-(benzo[b]thiophen-2-ylmethoxy)-1-methyl-5-(o-tolyl)-1H-pyrazolo[3,4-d]pyrimidin-4(5H)-one] | – | – | – | – | 1700 nM | > 10000 nM | > 10000 nM | ALDH2 inhibition at 20 μM (N.I.) (ALDH2): N.I.; OVSAHO Cell Viability (50 μM) % CD133 + % ctrl (OVSAHO): 50 % ctrl; OVSAHO Cell Viability (50 μM) Total Cell % ctrl (OVSAHO): 15 % ctrl
Cn1ncc2c(=O)n(-c3ccccc3O)c(SCc3cccc(F)c3)nc21 [Example 33, 6-((3-fluorobenzyl)thio)-5-(2-hydroxyphenyl)-1-methyl-1H-pyrazolo[3,4-d]pyrimidin-4(5H)-one] | – | 92% | 100% | 88% | 4100 nM | – | – | OVSAHO Cell Viability (50 μM) % CD133 + % ctrl (OVSAHO): 92 % ctrl; OVSAHO Cell Viability (50 μM) Total Cell % ctrl (OVSAHO): 18 % ctrl
CC(C)CCSc1nc2c(cnn2C)c(=O)n1-c1ccccc1 [Example 38, 6-(isopentylthio)-1-methyl-5-phenyl-1H-pyrazolo[3,4-d]pyrimidin-4(5H)-one] | – | – | – | 96% | 1200 nM | 940 nM | 390 nM | OVSAHO Cell Viability (50 μM) % CD133 + % ctrl (OVSAHO): 50 % ctrl; OVSAHO Cell Viability (50 μM) Total Cell % ctrl (OVSAHO): 39 % ctrl
Cn1ncc2c(=O)n(C3CCCCC3)c(SCc3cccc(F)c3)nc21 [Example 44, 5-cyclohexyl-6-((3-fluorobenzyl)thio)-1-methyl-1H-pyrazolo[3,4-d]pyrimidin-4(5H)-one] | 37% | 36% | 43% | 177% | – | – | – | –
Cn1ncc2c(=O)n(-c3ccccc3)c(COCc3cccc(F)c3)nc21 [Example 50, 6-(((3-fluorobenzyl)oxy)methyl)-1-methyl-5-phenyl-1H-pyrazolo[3,4-d]pyrimidin-4(5H)-one] | 15% | 52% | 37% | 101% | – | – | – | –
Cc1ccccc1-n1c(NCCc2cccc(F)c2)nc2c(cnn2C)c1=O [Example 23, 6-((3-fluorophenethyl)amino)-1-methyl-5-(o-tolyl)-1H-pyrazolo[3,4-d]pyrimidin-4(5H)-one] | 66% | 68% | 100% | 94% | – | – | – | –
CCn1cc2c(=O)n(-c3ccccc3C)c(SCc3cccc(F)c3)nc2n1 [Example 6, 2-ethyl-6-((3-fluorobenzyl)thio)-5-(o-tolyl)-2H-pyrazolo[3,4-d]pyrimidin-4(5H)-one] | – | – | – | 91% | 400 nM | 5200 nM | 7500 nM | –
Cc1ccccc1-n1c(SCc2cccc(F)c2)nc2n[nH]c(C)c2c1=O [Example 39, 6-((3-fluorobenzyl)thio)-3-methyl-5-(o-tolyl)-2H-pyrazolo[3,4-d]pyrimidin-4(5H)-one] | – | 93% | 79% | 95% | 1200 nM | – | – | –
